Source: patent US20080119530A1, “Method for treatment and prevention of ultraviolet light induced skin pathologies” (priority 2006, published 2008)
Marks after values point to notes of the source that are not given here.

Tested on: skin
Assay: Affymetrix microarray analysis of gene expression in mouse skin
Type: in vivo
Excerpt: Adult female CD-1 mice were maintained in our animal facility and provided with Purina lab chow (Nestlé Purina PetCare, St. Louis, Mo.) and water ad libitum. The dorsal skin was clipped one day before treatment and shaved with a Remington Microscreen shaver (Wahl, Sterling, II) on the day of treatment. […] UVB TL 40W/12 RS bulbs (Philips, Somerset, N.J.) were used that emitted approximately 30% UV-A, 70% UV-B and <1% UV-C, with a total output of 470 μW/cm^2, as measured with radiometric photodetector probes (Newport, Irvine, Calif.). Skin-fold thickness was measured using calipers to lightly pinch the dorsal skin. All animal procedures were approved by our Institutional Animal Care and Use Committee.
Microarray Analysis. Flash frozen skin was ground to a powder using a mortar and pestle and RNA extracted using a PowerGen 700 tissue homogenizer (Fisher, Hampton, N.H.) in TRIzol reagent (Invitrogen, Carlsbad, Calif.) according to the manufacturer's protocol. Total RNA was further purified using RNeasy Midi Columns according to the manufacturer's protocol (Qiagen, Valencia, Calif.). The quality of the RNA was assessed using an RNA 6000 Pico Assay (Aligent, Palo Alto, Calif.) with a Bioanalyzer (Agilent, Palo Alto, Calif.). Mouse MOE430A gene chips were purchased from Affymetrix (Santa Clara, Calif.). Five micrograms of total RNA from each sample was reverse transcribed using Superscript II (Invitrogen, Carlsbad, Calif.). In vitro transcription to generate biotinylated cRNA was performed using the Bioarray High Yield RNA Transcript Labeling kit (Enzo Diagnostics, Farmingdale, N.Y.). Fifteen micrograms of fragmented cRNA was hybridized for 16 h to mouse MOE430A chips at 45° C. using the Affymetrix 640 hybridization oven, stained, and scanned using the Agilent scanner according to standard Affymetrix protocols. Signal intensities from the Affymetrix “.CEL” files were derived using GeneChip Operating Software v1.2 (Affymetrix, Santa Clara, Calif.), multiplicative model-based expression index (dChip software)^19 and robust multi-array average^20. The data discussed in this publication have been deposited in NCBIs Gene Expression Omnibus (GEO) and are accessible through GEO Series accession number GSE4066. Methods employed to determine significant changes in gene expression from the derived signal intensities were Rank Products (RP)21, Significance Analysis of Microarrays (SAM)^22, Analysis of Variance (ANOVA), Student's t-test, and fold-change. […] Hierarchical clustering of gene expression was performed with dChip software. […] Significant clustering was also found among samples 6 h after UV and among samples 24 h after UV. Furthermore, significant clustering was found among samples treated with DMSO and among those treated with AG825. Scatter plots were generated using GeneChip Operating Software. Self-Organizing Maps were generated using GeneCluster 2.0 software^23. Grouping of genes into biological processes was performed using NetAffx Analysis Center and literature searches. Genes were mapped into biological networks with Pathways Analysis software (Ingenuity Systems, Mountain View, Calif.). Promoter Analysis and Interaction Network Toolset v3.3 (PAINT) was used to scan sequences up to 2000 base pair upstream of genes with altered expression to search for transcription factor binding sequences or transcriptional response elements (TRE) using a 0.95 core similarity threshold^24.
The influence of Erbb2 on gene expression following UV exposure was assessed using microarray analysis. […] Mice were exposed to UV twice because previous results indicated the influence of Erbb receptors on the response of the skin to UV increases with multiple exposures (22). […] In two randomly selected vehicle-treated and sham-irradiated mice, 8 genes out of approximately 13,000 detected (<0.1%) were expressed with more than a 5-fold difference between them. […]

[1] = Adhesion and Migration, 6 h post-UV
[2] = Adhesion and Migration, 24 h post-UV
[3] = Cell Communication, 6 h post-UV
[4] = Cell Communication, 24 h post-UV
[5] = Pigment Biosynthesis, 6 h post-UV
[6] = Pigment Biosynthesis, 24 h post-UV

Compound: COc1cc(/C=C(\C#N)C(N)=O)cc(CSc2nc3ccccc3s2)c1O [AG825]
- number of genes with altered expression (6 h after UV): 218
- share of the altered genes with increased expression (6 h after UV): 61%
- number of genes with altered expression (24 h after UV): 127
- share of the altered genes with increased expression (24 h after UV): 54%
- fold increase in Mmp9 expression (24 h after UV exposure, Affymetrix data): 2 fold
- Thbs1 expression vs vehicle-treated mice (24 h post-UV, Affymetrix probe): similar
- Total number of genes changed in AG825-treated samples (Adhesion and Migration): 47
- percentage of the total number of genes altered by Erbb2 (Adhesion and Migration): (13%)
- Number of genes decreased (↓) in AG825-treated samples when compared to the vehicle alone [1]: 13
- Number of genes increased (↑) in AG825-treated samples when compared to the vehicle alone [1]: 14
- Number of genes decreased (↓) in AG825-treated samples when compared to the vehicle alone [2]: 14
- Number of genes increased (↑) in AG825-treated samples when compared to the vehicle alone [2]: 4
- Number of genes decreased (↓) in AG825-treated samples when compared to the vehicle alone (Adhesion and Migration, Sham): 0
- Number of genes increased (↑) in AG825-treated samples when compared to the vehicle alone (Adhesion and Migration, Sham): 7
- Total number of genes changed in AG825-treated samples (Apoptosis): 25
- percentage of the total number of genes altered by Erbb2 (Apoptosis): (7%)
- Number of genes decreased (↓) in AG825-treated samples when compared to the vehicle alone (Apoptosis, 6 h post-UV): 6
- Number of genes increased (↑) in AG825-treated samples when compared to the vehicle alone (Apoptosis, 6 h post-UV): 5
- Number of genes decreased (↓) in AG825-treated samples when compared to the vehicle alone (Apoptosis, 24 h post-UV): 4
- Number of genes increased (↑) in AG825-treated samples when compared to the vehicle alone (Apoptosis, 24 h post-UV): 6
- Number of genes decreased (↓) in AG825-treated samples when compared to the vehicle alone (Apoptosis, Sham): 2
- Number of genes increased (↑) in AG825-treated samples when compared to the vehicle alone (Apoptosis, Sham): 2
- Total number of genes changed in AG825-treated samples (Cancer): 55
- percentage of the total number of genes altered by Erbb2 (Cancer): (15%)
- Number of genes decreased (↓) in AG825-treated samples when compared to the vehicle alone (Cancer, 6 h post-UV): 12
- Number of genes increased (↑) in AG825-treated samples when compared to the vehicle alone (Cancer, 6 h post-UV): 25
- Number of genes decreased (↓) in AG825-treated samples when compared to the vehicle alone (Cancer, 24 h post-UV): 7
- Number of genes increased (↑) in AG825-treated samples when compared to the vehicle alone (Cancer, 24 h post-UV): 8
- Number of genes decreased (↓) in AG825-treated samples when compared to the vehicle alone (Cancer, Sham): 3
- Number of genes increased (↑) in AG825-treated samples when compared to the vehicle alone (Cancer, Sham): 5
- Total number of genes changed in AG825-treated samples (Cell Communication): 65
- percentage of the total number of genes altered by Erbb2 (Cell Communication): (18%)
- Number of genes decreased (↓) in AG825-treated samples when compared to the vehicle alone [3]: 18
- Number of genes increased (↑) in AG825-treated samples when compared to the vehicle alone [3]: 18
- Number of genes decreased (↓) in AG825-treated samples when compared to the vehicle alone [4]: 20
- Number of genes increased (↑) in AG825-treated samples when compared to the vehicle alone [4]: 5
- Number of genes decreased (↓) in AG825-treated samples when compared to the vehicle alone (Cell Communication, Sham): 1
- Number of genes increased (↑) in AG825-treated samples when compared to the vehicle alone (Cell Communication, Sham): 6
- Total number of genes changed in AG825-treated samples (Development): 55
- percentage of the total number of genes altered by Erbb2 (Development): (15%)
- Number of genes decreased (↓) in AG825-treated samples when compared to the vehicle alone (Development, 6 h post-UV): 8
- Number of genes increased (↑) in AG825-treated samples when compared to the vehicle alone (Development, 6 h post-UV): 26
- Number of genes decreased (↓) in AG825-treated samples when compared to the vehicle alone (Development, 24 h post-UV): 12
- Number of genes increased (↑) in AG825-treated samples when compared to the vehicle alone (Development, 24 h post-UV): 4
- Number of genes decreased (↓) in AG825-treated samples when compared to the vehicle alone (Development, Sham): 2
- Number of genes increased (↑) in AG825-treated samples when compared to the vehicle alone (Development, Sham): 6
- Total number of genes changed in AG825-treated samples (Immune Response): 65
- percentage of the total number of genes altered by Erbb2 (Immune Response): (18%)
- Number of genes decreased (↓) in AG825-treated samples when compared to the vehicle alone (Immune Response, 6 h post-UV): 42
- Number of genes increased (↑) in AG825-treated samples when compared to the vehicle alone (Immune Response, 6 h post-UV): 3
- Number of genes decreased (↓) in AG825-treated samples when compared to the vehicle alone (Immune Response, 24 h post-UV): 14
- Number of genes increased (↑) in AG825-treated samples when compared to the vehicle alone (Immune Response, 24 h post-UV): 4
- Number of genes decreased (↓) in AG825-treated samples when compared to the vehicle alone (Immune Response, Sham): 0
- Number of genes increased (↑) in AG825-treated samples when compared to the vehicle alone (Immune Response, Sham): 8
- Total number of genes changed in AG825-treated samples (Metabolism): 158
- Number of genes decreased (↓) in AG825-treated samples when compared to the vehicle alone (Metabolism, 6 h post-UV): 23
- Number of genes increased (↑) in AG825-treated samples when compared to the vehicle alone (Metabolism, 6 h post-UV): 63
- Number of genes decreased (↓) in AG825-treated samples when compared to the vehicle alone (Metabolism, 24 h post-UV): 24
- Number of genes increased (↑) in AG825-treated samples when compared to the vehicle alone (Metabolism, 24 h post-UV): 43
- Number of genes decreased (↓) in AG825-treated samples when compared to the vehicle alone (Metabolism, Sham): 10
- Number of genes increased (↑) in AG825-treated samples when compared to the vehicle alone (Metabolism, Sham): 9
- Total number of genes changed in AG825-treated samples (Pigment Biosynthesis): 6
- percentage of the total number of genes altered by Erbb2 (Pigment Biosynthesis): (2%)
- Number of genes decreased (↓) in AG825-treated samples when compared to the vehicle alone [5]: 0
- Number of genes increased (↑) in AG825-treated samples when compared to the vehicle alone [5]: 5
- Number of genes decreased (↓) in AG825-treated samples when compared to the vehicle alone [6]: 0
- Number of genes increased (↑) in AG825-treated samples when compared to the vehicle alone [6]: 1
- Number of genes decreased (↓) in AG825-treated samples when compared to the vehicle alone (Pigment Biosynthesis, Sham): 3
- Number of genes increased (↑) in AG825-treated samples when compared to the vehicle alone (Pigment Biosynthesis, Sham): 0
- Total number of genes changed in AG825-treated samples (Proliferation): 36
- percentage of the total number of genes altered by Erbb2 (Proliferation): (10%)^c
- Number of genes decreased (↓) in AG825-treated samples when compared to the vehicle alone (Proliferation, 6 h post-UV): 6
- Number of genes increased (↑) in AG825-treated samples when compared to the vehicle alone (Proliferation, 6 h post-UV): 21
- Number of genes decreased (↓) in AG825-treated samples when compared to the vehicle alone (Proliferation, 24 h post-UV): 3
- Number of genes increased (↑) in AG825-treated samples when compared to the vehicle alone (Proliferation, 24 h post-UV): 6
- Number of genes decreased (↓) in AG825-treated samples when compared to the vehicle alone (Proliferation, Sham): 3^b
- Number of genes increased (↑) in AG825-treated samples when compared to the vehicle alone (Proliferation, Sham): 2
- Total number of genes changed in AG825-treated samples (Total Genes): 361
- Number of genes decreased (↓) in AG825-treated samples when compared to the vehicle alone (Total Genes, 6 h post-UV): 85
- Number of genes increased (↑) in AG825-treated samples when compared to the vehicle alone (Total Genes, 6 h post-UV): 133
- Number of genes decreased (↓) in AG825-treated samples when compared to the vehicle alone (Total Genes, 24 h post-UV): 59
- Number of genes increased (↑) in AG825-treated samples when compared to the vehicle alone (Total Genes, 24 h post-UV): 68
- Number of genes decreased (↓) in AG825-treated samples when compared to the vehicle alone (Total Genes, Sham): 14
- Number of genes increased (↑) in AG825-treated samples when compared to the vehicle alone (Total Genes, Sham): 25
- expression of cell cycle regulatory genes such as Ccna2, Ccnb1 and Ccnb2 (after UV): lesser responsiveness to UV
- share of the altered genes with increased expression (all 361 genes): 61%
- expression of proinflammatory chemokines such as Cxcl2 and Cd44 compared to vehicle-treated skin (by 24 h after UV exposure): lower
- Il1 b expression: fold greater increase after UV in vehicle-treated compared to AG825-treated samples (microarray): 16 fold
- expression of the anti-apoptotic genes Ghr and Ptgs2 (mouse, in vivo): suppressed
- fold higher Thbs1 expression compared to corresponding control (sham-irradiated skin, Affymetrix probe): 2 fold
- number of genes with altered expression (without UV irradiation): 39
- share of the altered genes with increased expression (without UV irradiation): 64%
